Molecular target: T1, Pru p 1.0101 (Prunus persica, UniProt Q2I6V8)
T1 construct: gene ypr-10
Assay: biochemical

T1 sequence (Q2I6V8 1-160): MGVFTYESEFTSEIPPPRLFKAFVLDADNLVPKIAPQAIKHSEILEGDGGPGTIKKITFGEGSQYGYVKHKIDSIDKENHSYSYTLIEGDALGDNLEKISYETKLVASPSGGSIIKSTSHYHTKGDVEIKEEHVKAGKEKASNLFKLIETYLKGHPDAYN

C/C(=C\CNc1ncnc2[nH]cnc12)CO [trans-zeatin] gave a Kd of 1900 ± 400 µM.
